From patent US7655670B2 (Janssen Pharmaceutica N.V., priority 2005, dated 2010)
pIC50: −log10 of the molar value. Where two headings read alike, the source gives them in different places.

What was measured:
Mu (μ) opioid receptor = Mu (μ) opioid receptor (Homo sapiens, UniProt P35372); experiment: Filtration binding assay, mu opioid receptor (Damgo-H3 ligand)
[1] = target: Kappa (κ) opioid receptor (Homo sapiens, UniProt P41145); experiment: Filtration binding assay, kappa opioid receptor (U69593-H3 ligand)
[2] = target: human nociceptin receptor (ORL-1) (Homo sapiens, UniProt P41146); experiment: nociceptin receptor (ORL-1) binding assay, 125I-Tyr14-nociceptin displacement
[3] = target: Delta (δ) opioid receptor (Homo sapiens, UniProt P41143); experiment: Filtration binding assay, delta opioid receptor (DPDPE-H3 ligand)
ORL-1 receptor = target: T1, ORL-1 receptor (Homo sapiens, UniProt P41146); experiment: ORL-1 functional assay (calcium flux, FLIPR); type: cell-based; parameters: key to Inhibitor: a notation of “no” indicates that the compound did not act as an inhibitor; a notation of “yes” indicates that the compound acted as an inhibitor; a notation of “undetermined” indicates that the data did not clearly show whether or not the compound acted as an antagonist; conditions: for Inhibitor: HEK-293 cells over-expressing ORL-1 receptor and Gqi5 G protein, calcium flux; for % Inhibition (100 nM Nociceptin): inhibition of calcium signal from 100 nM nociceptin, HEK-293 cells with ORL-1 and Gqi5
T1 construct: expressed in transfected cells; host or cells: HEK-293 over-expressing ORL-1 and Gqi5
Experimental: To assay the function of a test compound, a HEK-293 cell line that over-expresses the ORL-1 receptor and the Gqi5 G protein (Molecular Devices) were employed. By using a calcium flux assay, agonism and antagonism through the ORL-1 receptor were detectable.
The HEK-293 cells were plated two days prior to assay. For assay, cells in 50 μl of medium were incubated with 50 μl of dye (Molecular Devices) for 1 hour at 37° C. 100 μl of test compound diluted in Hank's Buffered Salt Solution (HBSS) at 2-fold the indicated final concentration was added and time points taken every 1 second for 1 minute and every 3 seconds for an additional 1 minute using FLIPR384 (Molecular Devices). 50 μl of nociceptin (Neosystems, SA) at 5-fold the indicated final concentration was then added and additional time points were recorded every 1 second for 1 minute and every 3 seconds for an additional 1 minute.
The resulting data were processed using Microsoft Excel 6.0 and EC50 values were determined using GraphPad Prism 3.0. For agonists, the EC50 was determined from the initial calcium signal obtained after addition of the test compound. For compounds that behaved as antagonists, the percent inhibition or IC50 of the signal resulting from the subsequent addition of the nociceptin peptide was calculated.

[4] = 1 D4 cell line membrane, Damgo-H3 ligand, calculated mean where tested more than once, read-out: Mu (μ) IC50
[5] = 2C2 cell line membrane, U69593-H3 ligand, calculated mean where tested more than once, read-out: Kappa (κ) IC50
[6] = 2D4 cell line membrane, DPDPE-H3 ligand, calculated mean where tested more than once, read-out: Delta (δ) IC50

T1 sequence (P41146 whole entry): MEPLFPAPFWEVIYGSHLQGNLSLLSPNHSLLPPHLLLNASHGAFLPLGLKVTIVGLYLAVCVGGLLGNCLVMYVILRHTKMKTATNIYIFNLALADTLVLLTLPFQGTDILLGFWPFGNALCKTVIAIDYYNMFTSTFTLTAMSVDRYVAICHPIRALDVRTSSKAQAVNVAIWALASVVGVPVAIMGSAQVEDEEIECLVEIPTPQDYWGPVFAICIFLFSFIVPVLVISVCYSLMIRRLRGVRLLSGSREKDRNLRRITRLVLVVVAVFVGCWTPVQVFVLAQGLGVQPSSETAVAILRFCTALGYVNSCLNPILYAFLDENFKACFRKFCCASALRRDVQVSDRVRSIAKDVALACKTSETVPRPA
Chain of human nociceptin receptor (ORL-1) (P41146 whole entry): as above
Chain of Mu (μ) opioid receptor (P35372 whole entry): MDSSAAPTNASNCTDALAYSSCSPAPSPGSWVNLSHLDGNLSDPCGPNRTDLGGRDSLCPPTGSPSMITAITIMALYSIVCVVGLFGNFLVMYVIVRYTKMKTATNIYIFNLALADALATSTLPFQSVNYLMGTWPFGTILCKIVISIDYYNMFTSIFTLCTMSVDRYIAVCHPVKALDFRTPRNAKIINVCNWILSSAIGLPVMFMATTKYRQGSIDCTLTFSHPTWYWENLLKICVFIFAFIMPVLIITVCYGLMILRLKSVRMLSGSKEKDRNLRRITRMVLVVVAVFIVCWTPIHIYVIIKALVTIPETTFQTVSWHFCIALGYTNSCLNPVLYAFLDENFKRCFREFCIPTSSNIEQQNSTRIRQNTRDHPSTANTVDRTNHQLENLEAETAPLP
Chain of Kappa (κ) opioid receptor (P41145 whole entry): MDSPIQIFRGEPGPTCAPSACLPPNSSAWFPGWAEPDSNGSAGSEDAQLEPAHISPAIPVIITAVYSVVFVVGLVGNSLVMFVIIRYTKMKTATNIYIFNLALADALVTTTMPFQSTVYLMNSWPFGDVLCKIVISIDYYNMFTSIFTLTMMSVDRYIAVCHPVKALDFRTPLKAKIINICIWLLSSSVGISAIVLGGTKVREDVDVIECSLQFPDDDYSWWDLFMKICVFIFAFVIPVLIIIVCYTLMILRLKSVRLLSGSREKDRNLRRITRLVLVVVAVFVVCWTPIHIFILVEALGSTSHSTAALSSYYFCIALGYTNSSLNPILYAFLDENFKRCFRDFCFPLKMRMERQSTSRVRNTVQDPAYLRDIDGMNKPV
Chain of Delta (δ) opioid receptor (P41143 whole entry): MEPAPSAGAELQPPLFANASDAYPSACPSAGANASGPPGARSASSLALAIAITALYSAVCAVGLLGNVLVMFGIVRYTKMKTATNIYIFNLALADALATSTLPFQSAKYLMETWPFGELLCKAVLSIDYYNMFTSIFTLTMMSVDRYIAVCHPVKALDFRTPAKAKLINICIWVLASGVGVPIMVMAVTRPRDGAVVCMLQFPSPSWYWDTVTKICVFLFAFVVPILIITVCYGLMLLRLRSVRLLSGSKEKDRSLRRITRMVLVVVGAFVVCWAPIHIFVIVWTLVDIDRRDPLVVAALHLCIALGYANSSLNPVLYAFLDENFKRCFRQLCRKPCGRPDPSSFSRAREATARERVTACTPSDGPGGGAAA

Row | Compound | pIC50 (Mu (μ) opioid receptor; [4]) | pIC50 [1, 5] | pIC50 [2] | also measured
1 | COC(=O)CN1C(=O)C2(CCN(CC3CCCCCCC3)CC2)c2ccccc21 [Compound 42] | 5.45 | 6.19 | 7.00 | –
2 | CN1C(=O)C2(CCN(CC3CCCCCCC3)CC2)c2cc(F)ccc21 [Compound 9, 1-methyl-5-(cyclooctyl-methyl)-9-fluoro-spiro[indoline-3,4′-piperidin]-2-one] | 6.00 | 6.60 | 7.64 | pIC50 [3]: < 5.00; Inhibitor (ORL-1 receptor): undetermined; % Inhibition (100 nM Nociceptin) (ORL-1 receptor): 41 ± 26%
3 | O=C1N(CC2CO2)c2ccccc2C12CCN(CC1CCCCCCC1)CC2 (stereo not shown) [Compound 60] | 6.08 | 6.32 | 7.08 | Inhibitor (ORL-1 receptor): no; % Inhibition (100 nM Nociceptin) (ORL-1 receptor): 17 ± 3%
4 | COC(=O)CN1C(=O)C2(CCN(CC3CCCCCCCCCCC3)CC2)c2ccccc21 [Compound 27] | – | – | 5.95 | –
5 | COC(=O)CN1C(=O)C2(CCN(C3Cc4cccc5cccc3c45)CC2)c2ccccc21 (stereo not shown) [Compound 30] | < 5.00 | 5.36 | – | pIC50 [3, 6]: < 5.00
6 | COC(=O)CN1C(=O)C2(CCN(Cc3cccc(C(F)(F)F)c3)CC2)c2ccccc21 [Compound 12] | – | – | 6.85 | –
7 | CN1C(=O)C2(CCN(CC3CCCCCCC3)CC2)c2cc(C(F)(F)F)ccc21 [Compound 8, 1-methyl-5-(cyclooctyl-methyl)-9-trifluoromethyl-spiro[indoline-3,4′-piperidin]-2-one] | 5.27 | – | 6.22 | pIC50 [3]: < 5.00
8 | CN1C(=O)C2(CCN(CC3CCCCCCC3)CC2)c2ccccc21 [Compound 45] | 5.89 | 6.03 | 7.49 | Inhibitor (ORL-1 receptor): no
9 | Cc1ccc2c(c1)C1(CCN(CC3CCCCCCC3)CC1)C(=O)N2C [Compound 57, 1-methyl-5-(cyclooctyl-methyl)-9-methyl-spiro[indoline-3,4′-piperidin]-2-one] | 5.37 | 6.27 | 6.35 | pIC50 [3, 6]: < 5.00; Inhibitor (ORL-1 receptor): no
10 | CCN1C(=O)C2(CCN(CC3CCCCCCC3)CC2)c2ccc(OC)cc21 [Compound 55, 1-ethyl-5-(cyclooctyl-methyl)-10-methoxy-spiro[indoline-3,4′-piperidin]-2-one] | 5.84 | – | 5.56 | –
11 | COC(=O)CN1C(=O)C2(CCN(CC3CCC(C(C)(C)C)CC3)CC2)c2ccccc21 (stereo not shown) [Compound 29] | – | – | 7.00 | –
12 | CCN(Cc1ccc(C)cc1)CC(O)CN1C(=O)C2(CCN(CC3CCCCCCC3)CC2)c2ccccc21 (stereo not shown) [Compound 62] | 6.21 | 6.66 | 6.49 | –
13 | CCCN1C(=O)C2(CCN(CC3CCCCCCC3)CC2)c2cc(C(C)C)ccc21 [Compound 17] | < 5.00 | 5.40 | – | pIC50 [3, 6]: 5.24
14 | O=C1N(Cc2ccccc2)c2ccccc2C12CCN(CC1CCCCCCC1)CC2 [Compound 44] | 6.02 | 5.96 | 6.92 | –
15 | O=C1N(CCO)c2ccccc2C12CCN(CC1CCCCCCC1)CC2 [Compound 20] | 5.77 | – | 6.54 | –
16 | O=C(O)CN1C(=O)C2(CCN(CC3CCCCCCC3)CC2)c2ccccc21 [Compound 41] | – | – | – | pIC50 [3]: < 5.00; pIC50 (Mu (μ) opioid receptor): < 5.00; pIC50 [1]: < 5.00
17 | COc1ccc2c(c1)N(C)C(=O)C21CCN(CC2CCCCCCC2)CC1 [Compound 35, 1-methyl-5-(cyclooctyl-methyl)-10-methoxy-spiro[indoline-3,4′-piperidin]-2-one] | 5.79 | 5.91 | 5.62 | –
18 | O=C1Nc2ccccc2C12CCN(CC1CCCCCCC1)CC2 [Compound 18] | 5.95 | 6.37 | 6.42 | Inhibitor (ORL-1 receptor): yes; % Inhibition (100 nM Nociceptin) (ORL-1 receptor): 45 ± 9%
19 | CC(C)c1ccc2c(c1)C1(CCN(CC3CCCCCCC3)CC1)C(=O)N2C [Compound 7, 1-methyl-5-(cyclooctyl-methyl)-9-isopropyl-spiro[indoline-3,4′-piperidin]-2-one] | – | – | 5.13 | pIC50 (Mu (μ) opioid receptor; read-out: Mu (μ) IC50): 6.01; pIC50 ([1]; read-out: Kappa (κ) IC50): 7.01

Row | Compound | pIC50 (Mu (μ) opioid receptor; [4]) | pIC50 [1, 5] | pIC50 [2] | also measured
20 | CN1C(=O)C2(CCN(C(=O)OC(C)(C)C)CC2)c2cc(C(F)(F)F)ccc21 [Compound 14, 1-methyl-5-tert-butoxycarbonyl-9-trifluoromethyl-spiro[indoline-3,4′-piperidin]-2-one] | – | – | < 5.00 | –
21 | COC(=O)CN1C(=O)C2(CCN(C3CCC4CCCCC4C3)CC2)c2ccccc21 (stereo not shown) [Compound 15] | – | – | 6.05 | –
22 | COC(=O)CN1C(=O)C2(CCN(CC3CCCCCC3)CC2)c2ccccc21 [Compound 1] | – | – | 6.29 | Inhibitor (ORL-1 receptor): no
23 | COC(=O)CN1C(=O)C2(CCN(Cc3ccc4ccccc4c3)CC2)c2ccccc21 [Compound 32] | – | – | 6.60 | –
24 | CCCCCCN1CCC2(CC1)C(=O)N(CC(=O)OC)c1ccccc12 [Compound 26] | – | – | 6.09 | –
25 | CN1C(=O)C2(CCN(CC3CCCCCCC3)CC2)c2ccc(O)cc21 [Compound 19] | < 5.00 | 6.92 | 5.57 | pIC50 [3, 6]: 6.52
26 | COc1ccc2c(c1)N(CC1CC1)C(=O)C21CCN(CC2CCCCCCC2)CC1 [Compound 5, 1-(cyclopropyl-methyl)-5-(cyclooctyl-methyl)-10-methoxy-spiro[indoline-3,4′-piperidin]-2-one] | – | – | – | pIC50 (Mu (μ) opioid receptor): < 5.00
27 | COC(=O)CN1C(=O)C2(CCN(CC3CCCCC3)CC2)c2ccccc21 [Compound 24] | – | – | 6.10 | Inhibitor (ORL-1 receptor): yes; % Inhibition (100 nM Nociceptin) (ORL-1 receptor): 32 ± 2%
28 | Cc1cccc2c1C1(CCN(CC3CCCCCCC3)CC1)C(=O)N2C [Compound 59, 1-methyl-5-(cyclooctyl-methyl)-8-methyl-spiro[indoline-3,4′-piperidin]-2-one] | 6.32 | 6.25 | 7.43 | Inhibitor (ORL-1 receptor): yes; % Inhibition (100 nM Nociceptin) (ORL-1 receptor): 81 ± 6%
29 | CC(=O)OCCN1C(=O)C2(CCN(CC3CCCCCCC3)CC2)c2ccccc21 [Compound 46] | 5.85 | 5.58 | 6.74 | Inhibitor (ORL-1 receptor): no
30 | CCN1CC2(CCN(CC3CCCCCCC3)CC2)c2ccc(OC)cc21 [Compound 63] | < 5.00 | < 5.00 | – | pIC50 [3, 6]: < 5.00
31 | CC(=O)N[C@@H](CSCC(O)CN1C(=O)C2(CCN(CC3CCCCCCC3)CC2)c2ccccc21)C(=O)O (stereo partly shown) [Compound 16] | 6.44 | 6.44 | – | pIC50 [3, 6]: < 5.00
32 | O=C1N(CC(O)CNCCN2CCOCC2)c2ccccc2C12CCN(CC1CCCCCCC1)CC2 (stereo not shown) [Compound 61] | – | – | 6.92 | pIC50 (Mu (μ) opioid receptor; read-out: Mu (μ) IC50): 6.30; pIC50 ([1]; read-out: Kappa (κ) IC50): 7.00
33 | COC(=O)CN1C(=O)C2(CCN(Cc3cccc4ccccc34)CC2)c2ccccc21 [Compound 43] | – | – | 6.33 | –
34 | O=C1N(CC2CCCCC2)c2ccccc2C12CCN(C1Cc3cccc4cccc1c34)CC2 (stereo not shown) [Compound 4] | < 5.00 | – | – | pIC50 [3, 6]: < 5.00
35 | Cc1ccc2c(c1)N(C)C(=O)C21CCN(CC2CCCCCCC2)CC1 [Compound 58, 1-methyl-5-(cyclooctyl-methyl)-10-methyl-spiro[indoline-3,4′-piperidin]-2-one] | 5.19 | 5.62 | 6.82 | pIC50 [3, 6]: 5.06; Inhibitor (ORL-1 receptor): undetermined; % Inhibition (100 nM Nociceptin) (ORL-1 receptor): 48 ± 26%
36 | COC(=O)CN1C(=O)C2(CCN(CC3CC3)CC2)c2ccccc21 [Compound 23] | – | – | 5.44 | –
37 | COC(=O)CN1C(=O)C2(CCN(Cc3ccc(Cl)cc3)CC2)c2ccccc21 [Compound 39] | – | – | 6.15 | –
38 | COC(=O)CN1C(=O)C2(CCN(Cc3ccc(C(F)(F)F)cc3)CC2)c2ccccc21 [Compound 11] | – | – | 6.06 | –
